Tests used:
[1] = system: double helical oligonucleotide d(ATAT)2; experiment: DNA binding and cleaving mechanism with oligonucleotide (LC-mass); settings: 1:1, phosphate buffer pH 6.0, in the dark for 2.0 h
Description: A double helical oligonucleotide d(ATAT)2 was prepared and added to a phosphate buffer solution (pH = 6.0) containing complex 1(1:1). The solution was kept in the dark for 2.0 h. An intermediate was detected, at a yield of 57%, with a signal at 650.1 for (M + H^+) as analyzed by an electron spray ionization detector in LC-mass chromatogram. Then, the solution was irradiated with 350 nm-UV light for 2.0 h at room temperature. A product was detected with a signal at 456.1 for (M + H^+). […] Then an intramolecular cyclization took place to remove the DMSO and to form a covalent bond between the N-7 nitrogen atom and the platinum in complex 1, resulting in the oligonucleotide cleavage.

2'-deoxyguanosine = experiment: Binding and cyclization reaction with 2'-deoxyguanosine (LC-mass)
Description: As a comparison, a reaction involving 2'-deoxyguanosine and complex 1 was carried out. Complex 1 bound to the C-2 amino on a guanine to form a Pt-N covalent bond. […] As a result, cleavage at a guanine site required assistance from an external base (e.g., piperidine). In another experiment, an excess of complex 1 was added to a 2'-deoxyguanosine solution, followed by piperidine treatment. An intermediate was detected, at a yield of 42%, with a signal at 1063.9 for (M + H^+) as analyzed by an electron spray ionization detector in LC-mass chromatogram. The intermediate was able to give a cyclization product, at a yield of 80%, with a signal at 792.0 for (M + H^+) upon 350-nm UV light irradiation, but not in the dark. The scheme below depicts the just-described reaction: [drawing 5]

[2] = system: 160-bp dsDNA fragment was prepared from the 501―660 fragment of pBR322 DNA; experiment: Site-specific DNA cleavage of 5'-32P-labeled 160-bp dsDNA fragment (polyacrylamide/urea gel, autoradiogram); assay type: biochemical; settings: complex 20―100 µM, 350-nm UV 2.0 h
Description: A 160-bp dsDNA fragment was prepared from the 501―660 fragment of pBR322 DNA. It was amplified by the polymerase chain reaction (Bailly & Waring (1995) J. Am. Chem. Soc. 117:7311; Bailly et al. (1993) J. Am Chem. Soc. 115: 3784; and Sayers & Waring (1993) Biochemistry 32: 9094), and labeled at the 5'-terminus with γ-[^32P]-ATP and T4 polynucleotide kinase. A reaction mixture containing a 5'-terminus labeled ^32P-DNA solution, a phosphate buffer (0-10 M, pH 6.0), and complex 1 (20―100 µM) in a Pyrex vial was preincubated at 37°C for 30 min. The reaction mixture was irradiated with 350-nm UV light under aerobic conditions for 2.0 h at room temperature. The bound metal complexes on DNA fragments were removed by using 0.30 N NaCN (pH = 11) at 37°C for 8.0 h (Schwartz et al. (1990) J. Am. Chem. Soc. 112: 3673; and Zou et al. (1994) Biochemistry 33: 5404). The reaction mixture was then quenched with either a gel-loading buffer or 95% ethanol. […] The samples and the Maxam-Gilbert markers were analyzed using 10% polyacrylamide/8.0 M urea gel. […] Quantitation of relative intensities of DNA fragments was performed using a Microtek scanner and NIH 1.60 image program.
The detected DNA fragments were compared with Maxam-Gilbert markers on an autoradiogram, and quantitated by a computer-assisted program.

[3] = system: supercoiled circular φX174 RFI DNA; experiment: Single-strand DNA cleavage of supercoiled circular DNA under 350 nm UV irradiation (agarose gel); assay type: biochemical; settings: for (% form I) / (% form II) / (% form II)/ (% form I) / DNA forms observed on gel: 350 nm UV 2.0 h
Description: Cleavage at various pH's: A reaction mixture (10 µL) containing supercoiled circular φX174 RFI DNA stock solution (50 µM/base pair), complex 1 (5.0 µM), and a phosphate buffer (0.10 M, pH 5.0, 6.0, 7.0, and 8.0) in a Pyrex vial was preincubated at 37°C. The reaction mixture was then irradiated with 350 nm UV light (32-W) for 2.0 h at room temperature. After adding a gel-loading buffer (025% bomophenol blue, 0.25% xylene cyanol, and 30% glycerol), the reaction mixture was loaded on a 1% agarose gel, followed by ethidium bromide staining. The gel was visualized by a 312-nm UV transilluminator and photographed by a FB-PDC-34 camera. Supercoiled circular DNA and cleaved DNA were clearly seen from the gel.
Cleavage at various complex concentrations: A reaction mixtures (10 µL) containing supercoiled circular φX174 RFI DNA stock solution (50 µM/base pair), complex 1 (0.050―100 µM), and a phosphate buffer (0.10 M, pH 6.0) in a Pyrex vial was preincubated at 37°C. The mixture was irradiated with 350 nm UV light (32-W) for 2.0 h at room temperature. After adding a gel-loading buffer (0.25% bromophenol blue, 0.25% xylene cyanol, and 30% glycerol), the reaction mixture was loaded on a 1% agarose gel, followed by ethidium bromide staining. The gel was visualized by a 312-nm UV transilluminator and photographed by a FB-PDC-34 camera. Supercoiled circular DNA (form I) and cleaved DNA (form II) were clearly seen from the gel.

[4] = system: supercoiled circular φX174 RFI DNA; experiment: as above; assay type: biochemical; settings: in the dark

## C[S+](C)(=O)[Pt-2]1([Cl])[O][n+]2ccccc2[S]1 (centres unmarked) [complex 1, PtCl(DMSO)[η^2-C5H4SN(O)]]
[1]
  yield of intermediate (complex bound to adenine): 57%
2'-deoxyguanosine; excess of complex, followed by piperidine treatment
  yield of intermediate (complex bound to guanine): 42%
2'-deoxyguanosine; upon 350-nm UV light irradiation
  yield of cyclization product from intermediate: 80%
[2]; with hot piperidine treatment
  site of DNA cleavage: cleaved DNA at purine residues
[2]; without piperidine treatment
  site of DNA cleavage: at adenine residues
[3]; complex 1.0 µM, pH 6.0
  (% form I): 37%
  (% form II): 63%
  (% form II)/ (% form I): 1.7
[3]; complex 2.5 µM, pH 6.0
  (% form I): 20%
  (% form II): 80%
  (% form II)/ (% form I): 4.0
[3]; complex 5.0 µM, pH 6.0
  (% form I): 7.1%
  (% form II): 93%
  (% form II)/ (% form I): 13
  DNA forms observed on gel: only cleaved DNA was observed
[3]; complex 5.0 µM, pH 5.0
  DNA forms observed on gel: only cleaved DNA was observed
[3]; complex 5.0 µM, pH 7.0
  DNA forms observed on gel: only cleaved DNA was observed
[3]; complex 5.0 µM, pH 8.0
  DNA forms observed on gel: both supercoiled circular DNA and cleaved DNA were observed
[3]; concentration as low as 1.0 µM
  DNA cleaving activity: very strong DNA cleaving activity
[4]; complex 500 µM, pH 6.0
  (% form I): 93%
  (% form II): 7.0%
  (% form II)/ (% form I): 0.070
[4]
  cleavage of single-strand DNA: did not occur
